The target of assay [1] is T1, MalE-DmxA^WT (Myxococcus xanthus, UniProt Q1D632).
T1 construct: gene MXAN_3705; residues 223-722 (two GAF domains + GGDEF; N-terminal transmembrane domain removed), N-terminal MalE (MBP) tag kept, pMAL-c6t, E. coli Rosetta DE3; dimer by SEC
T1 sequence (Q1D632 211-710): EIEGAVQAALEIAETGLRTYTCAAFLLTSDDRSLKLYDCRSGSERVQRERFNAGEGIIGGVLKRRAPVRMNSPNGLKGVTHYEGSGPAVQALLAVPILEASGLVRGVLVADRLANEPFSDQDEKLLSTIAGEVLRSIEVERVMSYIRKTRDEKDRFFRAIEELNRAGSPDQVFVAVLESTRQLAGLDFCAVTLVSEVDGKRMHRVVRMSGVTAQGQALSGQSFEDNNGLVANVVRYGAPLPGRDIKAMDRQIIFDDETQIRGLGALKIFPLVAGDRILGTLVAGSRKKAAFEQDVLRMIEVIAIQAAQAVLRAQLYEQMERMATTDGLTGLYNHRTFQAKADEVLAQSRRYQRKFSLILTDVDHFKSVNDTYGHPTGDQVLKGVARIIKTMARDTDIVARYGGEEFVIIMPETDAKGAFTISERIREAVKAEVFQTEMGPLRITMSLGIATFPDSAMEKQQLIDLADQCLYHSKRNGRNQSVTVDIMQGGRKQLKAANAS
The experiment in a line: diguanylate cyclase assay, pyrophosphate release (EnzChek). The note with it: 1 µM protein, 50 µM GTP. It counts as biochemical.

In assay [2] the target is T2, MalE-DmxA^WT (Myxococcus xanthus, UniProt Q1D632).
T2 construct: gene MXAN_3705; residues 223-722 (two GAF domains + GGDEF; N-terminal transmembrane domain removed), N-terminal MalE (MBP) tag kept, pMAL-c6t, E. coli Rosetta DE3; dimer by SEC
Described as above. It counts as biochemical. The conditions noted are these: 1 µM protein, 50 µM GTP; I-site mutant.
T2 sequence (Q1D632 entry or part of it R603A): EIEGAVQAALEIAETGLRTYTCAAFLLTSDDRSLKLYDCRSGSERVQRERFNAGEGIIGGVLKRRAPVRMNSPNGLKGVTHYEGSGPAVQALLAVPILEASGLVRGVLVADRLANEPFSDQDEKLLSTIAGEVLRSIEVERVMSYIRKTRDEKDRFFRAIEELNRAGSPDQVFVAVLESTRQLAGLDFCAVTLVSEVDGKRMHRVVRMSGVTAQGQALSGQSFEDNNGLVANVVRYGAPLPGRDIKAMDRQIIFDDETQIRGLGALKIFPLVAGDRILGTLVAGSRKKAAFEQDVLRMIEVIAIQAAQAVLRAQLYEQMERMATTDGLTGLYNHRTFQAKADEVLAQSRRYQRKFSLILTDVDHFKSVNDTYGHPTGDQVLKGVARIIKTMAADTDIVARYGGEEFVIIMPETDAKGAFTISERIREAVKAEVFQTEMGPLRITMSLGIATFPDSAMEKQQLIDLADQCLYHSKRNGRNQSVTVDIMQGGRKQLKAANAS

The target of assay [3] is T1, MalE-DmxA^WT. The experiment in a line: diguanylate cyclase assay, pyrophosphate release (EnzChek), variable-slope inhibition fit. Format: biochemical.
Assay [4] addresses T3, MalE-DmxA^WT (Myxococcus xanthus, UniProt Q1D632, E614A).
T3 construct: gene MXAN_3705; residues 223-722 (two GAF domains + GGDEF; N-terminal transmembrane domain removed), N-terminal MalE (MBP) tag kept, pMAL-c6t, E. coli Rosetta DE3; dimer by SEC
The experiment in a line: bio-layer interferometry, biotinylated c-di-GMP immobilised on streptavidin sensor. Format: binding. The note with it: labelled compound (biotinylated c-di-GMP, immobilised); 10 µM protein; active-site mutant. For orientation: BLI is a label-free optical method that tracks binding on a fibre tip over time.

Assay [5] addresses MalE-DmxA^E626A (DmxA residues 223-722 with the catalytic-site substitution E626A) (Myxococcus xanthus DK1622). The experiment in a line: SEC; HiLoad 16/600 Superdex 200 pg; SEC buffer 50 mM Tris-HCl pH 7.2, 250 mM NaCl, 10 mM MgCl2, 5 mM DTT, 5% glycerol; column calibrated with Ribonuclease A, Carbonic Anhydrase, Conalbumin and Ferritin; oligomeric state estimated from the elution volume.

In assay [6] the target is MalE-DmxA^GAF×2 (DmxA residues 223-547: only the two GAF domains) (Myxococcus xanthus DK1622). The assay is described as above.
Assay [7] concerns the target MalE-DmxA^R615A (DmxA residues 223-722 with the I-site substitution R615A) (Myxococcus xanthus DK1622). The description is as above.
In assay [8] the target is MalE-DmxA^WT (DmxA residues 223-722: two GAF domains and the GGDEF domain) (Myxococcus xanthus DK1622). The assay is described as above.

T3 sequence (Q1D632 entry or part of it E614A): as the sequence (Q1D632 entry or part of it R603A) above, with A393R, E404A counted along it

On to `Nc1nc2c(ncn2[C@@H]2O[C@H](COP(=O)(O)OP(=O)(O)OP(=O)(O)O)[C@@H](O)[C@H]2O)c(=O)[nH]1` [GTP], for which the “diguanylate cyclase assay, pyrophosphate release (EnzChek)” value was “MalE-DmxA^WT and MalE-DmxA^R615A had DGC activity” in assay [1]; “MalE-DmxA^WT and MalE-DmxA^R615A had DGC activity” in assay [2].
For orientation: Ki means a dissociation constant, usually derived from enzyme kinetics or from competition with a known ligand. Read a low Ki as a stronger hold on the target. Take `Nc1nc2c(ncn2[C@@H]2O[C@@H]3COP(=O)(O)O[C@H]4[C@@H](O)[C@H](n5cnc6c(=O)[nH]c(N)nc65)O[C@@H]4COP(=O)(O)O[C@H]3[C@H]2O)c(=O)[nH]1` [c-di-GMP]: in assay [3], the Ki was approximately 15 µM. Moreover, in assay [4], the “bio-layer interferometry, biotinylated c-di-GMP immobilised on streptavidin sens” value was “MalE-DmxA^WT and MalE-DmxA^E626A bound c-di-GMP”.
The stoichiometry N is the number of molecules, sites or subunits per partner or assembly. On to “MalE-DmxA^E626A (DmxA residues 223-722 with the catalytic-site substitution E626A) (domain or fragment)”, for which the stoichiometry N in assay [5] is 2.
As for “MalE-DmxA^GAF×2 (DmxA residues 223-547: only the two GAF domains) (domain or fragment)”, the stoichiometry N in assay [6] was 2.
With “MalE-DmxA^R615A (DmxA residues 223-722 with the I-site substitution R615A) (domain or fragment)”, in assay [7], the stoichiometry N is 2.
As to “MalE-DmxA^WT (DmxA residues 223-722: two GAF domains and the GGDEF domain) (domain or fragment)”, the stoichiometry N in assay [8] was 2.

The values above are taken from PMC11255338, “A deterministic, c-di-GMP-dependent program ensures the generation of phenotypically similar, symmetric daughter cells during cytokinesis” (Nature Communications, 2024).
